Data as given in patent publication US20230233736A1, “ANTIMICROBIAL FORMULATIONS COMPRISING SILICONE” (AMICOAT AS, priority 2020, published 2023).

Experiments:
[1] = system: Staphylococcus hominis 58-69; test: CFU on silicone prosthetic liner patches; type: cell-based; settings: washed with water
Protocol: (§1) Bacterial Strains: • Staphylococcus epidermidis RP62A • Staphylococcus hominis 58-69
(§2) Overnight colonies of S. epidermidis or S. hominis were diluted to 0.5 McFarland (1×10^8 CFU/ml) in 0.85% NaCl. The bacterial solution was further diluted in Tryptic Soy Broth media (to 1×10^5 CFU/ml) and drops of 100 μl was applied to the surfaces of the silicone patches. Silicone patches were placed on glass microscope slides, and the glass slides were placed in a moist incubation chamber and incubated for 24 hours at 37° C.
(§3) For determining CFU, the samples were vortexed in 1 ml 0.85% NaCl and serial dilutions (10^−1 to 10^−6) were made. 100 μl aliquots of the serial dilutions were streaked on blood agar plates, and further incubated overnight prior to CFU counting.
(§4) The level of bacterial inhibition was examined by number of CFU and growth zone inhibition. All materials tested were washed with water after completion of the swell and dry procedure to ensure that the activity of the materials was due to internally absorbed AMC-109 only.

[2] = system: Staphylococcus epidermidis RP62A; test: CFU on silicone prosthetic liner patches; type: cell-based; settings: washed with water
Protocol: as §1, §2, §3, §4

[3] = system: Streptococcus pyogenes; test: Murine skin infection model, topical treatment; type: in vivo, mice; settings: FIG. 2
Protocol: (§5) The skin of mice was infected with Staphylococcus aureus or Streptococcus pyogenes and subsequently given a total of three treatments at three hourly intervals. Three hours after the last treatment, skin biopsies were collected and the number of colony forming units (CFUs) present in the skin sample was determined. Results are shown in FIGS. 1 and 2, expressed as the number of colony forming units per mouse.
In experiment 2 (FIG. 2), compound 2 was applied in two different concentrations, as either a 1% or a 2% gel. A placebo gel and a known antibacterial “bactroban” were used as controls.
as §5, with “3, 4” for “1”, “5” for “2,”
In experiment 2 (FIG. 4), compound 7 was applied in two different concentrations, as either a 1% or a 2% gel. A placebo gel and a known antibacterial “bactroban (mupericin)” were used as controls.

[4] = system: Staphylococcus aureus, strain ATCC 25923; settings: S. aureus ATCC 25923
[5] = system: trypsin; test: in vitro; type: in vitro ADME; settings: pH 8.6
Protocol: Each peptide was dissolved in a 0.1 M NH4HCO3 buffer (pH 6.5) to yield a final peptide concentration of 1 mg/ml. A trypsin solution was prepared by dissolving 1 mg of trypsin in 50 ml 0.1 M NH4HCO3 buffer (pH 8.2). For the stability determination, 250 μl freshly made trypsin solution and 250 μl peptide solution were incubated in 2 ml of 0.1 M NH4HCO3 buffer (pH 8.6) at 37° C. on a rocking table. Aliquots of 0.5 ml were sampled at different time intervals, diluted with 0.5 ml water:acetonitrile (60:40 v/v) containing 1% TFA and analysed by RP-HPLC as described above. Samples without trypsin addition taken at 0 h and after 20 h at 37° C. were used as negative controls. Integration of the peak area at 254 nm for samples taken during the first 5 hours of the assay was used to generate the […].

CC(C)(C)c1cc(C(C)(C)C)c2[nH]c(C(C)(C)C)c(CC(NC(=O)C(N)CCCNC(=N)N)C(=O)NC(CCCNC(=N)N)C(=O)NCCc3ccccc3)c2c1 (centres unmarked) [Compound 2] gave a CFU ([1]; 5 minutes swell time) of 0 CFU/ml, a CFU ([1]; 15 minutes swell time) of 0 CFU/ml and a CFU ([2]; 5 minutes swell time) of 0 CFU/ml. The CFU ([2]; 15 minutes swell time) was 0 CFU/ml, the “number of CFUs, 2% gel compared with 1% gel” value [3] was “more effective than the gel containing only 1% of compound 2” and the “number of colony forming units (CFU) in skin biopsy” value ([3]; 1% or 2% gel, three treatments at three hourly intervals) was “more effective at reducing the number of CFUs than the placebo gel or the bactroban”. The MIC [4] was less than 3 µM and the half-life at 0.1 mg/ml [5] was greater than 24 h.
